# In patent publication US9000183B2, “Cyclohexane-1,2′-indene-1′,2″-imidazol compounds and their use as BACE inhibitors” (AstraZeneca AB, priority 2012, dated 2015):
# Assays:
# human β-Secretase [1] = target: T1, human β-Secretase (Homo sapiens (Human), UniProt P56817); test: Diluted TR-FRET assay; type: biochemical; details: 50 times less enzyme, 6.5 h reaction time; read-out: IC50 in TR-FRET assay (IC50 from the diluted FRET assay)
# Description: (§1) The cDNA for the soluble part of the human β-Secretase (AA 1-AA 460) was cloned using the ASP2-Fc10-1-IRES-GFP-neoK mammalian expression vector. The gene was fused to the Fc domain of IgG1 (affinity tag) and stably cloned into HEK 293 cells.
# (§2) The enzyme (truncated form) was diluted to 6 μg/mL (stock 1.3 mg/mL) and the TruPoint BACE1 Substrate to 200 nM (stock 120 μM) in reaction buffer (NaAcetate, chaps, triton x-100, EDTA pH4.5). Enzyme and compound in dimethylsulphoxide (final DMSO concentration 5%) was mixed and pre-incubated for 10 minutes at RT. Substrate was then added and the reaction was incubated for 15 minutes at RT. The reaction was stopped with the addition of 0.35 vol Stop solution (NaAcetate, pH 9). The fluorescence of the product was measured on a Victor II plate reader with excitation wavelengths of 340-485 nm and emission wavelengths of 590-615 nm. […] The dimethylsulphoxide control, instead of test compound, defined the 100% activity level and 0% activity was defined by wells lacking enzyme (replaced with reaction buffer) or by a saturating dose of a known inhibitor, 2-amino-6-[3-(3-methoxyphenyl)phenyl]-3,6-dimethyl-5H-pyrimidin-4-one.
# Compounds with a high affinity were further tested in a diluted TR-FRET assay, conditions as described above for the TR-FRET assay, but with 50 times less enzyme and a 6.5 h long reaction time at r.t. in the dark.
# [2] = system: sAPPβ release, SH-SY5Y cells; test: sAPPβ release assay; type: cell-based; details: 17 h incubation
# Description: Thaw cells and seed at a conc. of around 10000 cells/well in DMEM/F-12 with Glutamax, 10% FCS and 1% non-essential amino acids to a 384-well tissue culture treated plate, […] cell susp/well. The cell plates were then incubated for 7-24 h at 37° C., 5% CO2. The cell medium was removed, followed by addition of 30 μL compound diluted in DMEM/F-12 with Glutamax, 10% FCS, 1% non-essential amino acids and 1% PeSt to a final conc. of 1% DMSO. The compounds were incubated with the cells for 17 h (overnight) at 37° C., 5% CO2. Meso Scale Discovery (MSD) plates were used for the detection of sAPPβ release. MSD sAPPβ plates were blocked in 1% BSA in Tris wash buffer (40 μL/well) for 1 h on shake at r.t. and washed 1 time in Tris wash buffer (40 μL/well). 20 μL of medium was transferred to the pre-blocked and washed MSD sAPPβ microplates, and the cell plates were further used in an ATP assay to measure cytotoxicity. The MSD plates were incubated with shaking at r.t. for 2 h and the media discarded. 10 μL detection antibody was added (1 nM) per well followed by incubation with shaking at r.t. for 2 h and then discarded. 40 μL Read Buffer was added per well and the plates were read in a SECTOR Imager.
# human β-Secretase [3] = target: T1, human β-Secretase; test: TR-FRET assay; type: biochemical
# Description: The β-secretase enzyme used in the TR-FRET is prepared as follows:
# as §1, §2
# T1 sequence (P56817 22-460): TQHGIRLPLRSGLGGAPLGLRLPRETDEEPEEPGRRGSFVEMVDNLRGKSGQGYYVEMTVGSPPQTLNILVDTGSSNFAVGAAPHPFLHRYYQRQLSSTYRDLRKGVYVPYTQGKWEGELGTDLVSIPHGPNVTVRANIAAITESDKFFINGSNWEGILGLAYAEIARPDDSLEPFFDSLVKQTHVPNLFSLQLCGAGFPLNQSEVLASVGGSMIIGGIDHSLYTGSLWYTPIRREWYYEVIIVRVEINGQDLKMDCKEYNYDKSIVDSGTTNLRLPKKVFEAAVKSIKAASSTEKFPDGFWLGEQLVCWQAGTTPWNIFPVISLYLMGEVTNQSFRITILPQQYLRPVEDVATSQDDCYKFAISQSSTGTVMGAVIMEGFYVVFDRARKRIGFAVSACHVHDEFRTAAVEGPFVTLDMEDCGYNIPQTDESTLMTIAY
SMILES,IC50 (human β-Secretase [1]),IC50 [2],IC50 (human β-Secretase [3]),IC50 ([2]; Homo sapiens)
"CO[C@H]1CC[C@]2(CC1)Cc1cc(F)c(-c3cc(Cl)cc(C#N)c3)cc1[C@@]21N=C(C)C(N)=N1 (single isomer, unassigned; isomer 1) [6 Isomer 1]",2.4 nM,–,–,–
"CO[C@H]1CC[C@]2(CC1)Cc1cc(F)c(-c3cc(Cl)cc(C#N)c3)cc1[C@]21N=C(C)C(N)=N1 (single isomer, unassigned; isomer 2) [6 Isomer 2]",–,–,> 4300 nM,–
"CO[C@H]1CC[C@]2(CC1)Cc1cc(C)c(Br)cc1C21N=C(C)C(N)=N1 (some centres unmarked) [Example 1, (1r,4r)-6′-Bromo-4-methoxy-5′,5″-dimethyl-3′H-dispiro[cyclohexane-1,2′-indene-1′,2″-imidazol]-4″-amine]",–,–,1660 nM,–
"CC#Cc1cncc(-c2cc3c(cc2C)C[C@]2(CC[C@@H](OC)CC2)C32N=C(C)C(N)=N2)c1 (some centres unmarked) [Example 2, (1r,4r)-4-Methoxy-5′,5″-dimethyl-6′-[5-(prop-1-yn-1-yl)pyridin-3-yl]-3′H-dispiro[cyclohexane-1,2′-indene-1′,2″-imidazol]-4″-amine]",15 nM,–,–,17 nM
"CO[C@H]1CC[C@]2(CC1)Cc1cc(C)c(-c3cc(Cl)cc(C#N)c3)cc1C21N=C(C)C(N)=N1 (some centres unmarked) [Example 3, 3-[(1r,4r)-4″-Amino-4-methoxy-5′,5″-dimethyl-3′H-dispiro[cyclohexane-1,2′-indene-1′,2″-imidazol]-6′-yl]-5-chlorobenzonitrile]",24 nM,–,–,12 nM
"COC1CCC2(CC1)Cc1cc(F)c(Br)cc1C21N=C(C)C(N)=N1 (centres unmarked) [Example 4, 6′-Bromo-5′-fluoro-4-methoxy-5″-methyl-3′H-dispiro[cyclohexane-1,2′-indene-1′,2″-imidazol]-4″-amine]",–,–,516 nM,–
"CO[C@H]1CC[C@]2(CC1)Cc1cc(F)c(-c3cncc(Cl)c3)cc1C21N=C(C)C(N)=N1 (some centres unmarked) [Example 7, (1r,4r)-6′-(5-Chloropyridin-3-yl)-5′-fluoro-4-methoxy-5″-methyl-3′H-dispiro[cyclohexane-1,2′-indene-1′,2″-imidazol]-4″-amine]",–,–,36 nM,3 nM
"CO[C@H]1CC[C@]2(CC1)Cc1cc(F)c(OCCCF)cc1C21N=C(C)C(N)=N1 (some centres unmarked) [Example 10, 5′-Fluoro-6′-(3-fluoropropoxy)-4-methoxy-5″-methyl-3′H-dispiro[cyclohexane-1,2′-indene-1′,2″-imidazol]-4″-amine]",–,–,39 nM,–

# Next, values leading:
IC50 (human β-Secretase [1]),IC50 [2],IC50 (human β-Secretase [3]),IC50 ([2]; Homo sapiens),SMILES
13 nM,7.4 nM,–,–,"CO[C@H]1CC[C@]2(CC1)Cc1cc(F)c(-c3cc(F)cc(C#N)c3)cc1[C@@]21N=C(C)C(N)=N1 (single isomer, unassigned; isomer 1) [9 Isomer 1]"
–,–,> 5000 nM,–,"CO[C@H]1CC[C@]2(CC1)Cc1cc(F)c(-c3cc(F)cc(C#N)c3)cc1[C@]21N=C(C)C(N)=N1 (single isomer, unassigned; isomer 2) [9 Isomer 2]"
–,–,23 nM,–,"CO[C@H]1CC[C@]2(CC1)Cc1cc(F)c(-c3cc(Cl)cc(C#N)c3)cc1C21N=C(C)C(N)=N1 (some centres unmarked) [Example 5, 3-[(1s,4s)-4″-Amino-5′-fluoro-4-methoxy-5″-methyl-3′H-dispiro[cyclohexane-1,2′-indene-1′,2″-imidazol]-6′-yl]-5-chlorobenzonitrile]"
–,–,23 nM,4.8 nM,"CO[C@H]1CC[C@]2(CC1)Cc1cc(F)c(-c3cc(F)cc(C#N)c3)cc1C21N=C(C)C(N)=N1 (some centres unmarked) [Example 8, 3-[(1r,4r)-4″-Amino-5′-fluoro-4-methoxy-5″-methyl-3′H-dispiro[cyclohexane-1,2′-indene-1′,2″-imidazol]-6′-yl]-5-fluorobenzonitrile]"
